Data published in paper PMC8588536, “Iridal-Type Triterpenoids Displaying Human Neutrophil Elastase Inhibition and Anti-Inflammatory Effects from Belamcanda chinensis” (Molecules, 2021).
“Also recorded” adds a separate entry of the source.

Tests used:
[1] = molecular target: T1, Human neutrophil elastase (HNE, EC 3.4.21.37) (Homo sapiens, UniProt P08246); test: Human neutrophil elastase inhibition, spectrophotometric, MeOSuc-AAPV-pNA substrate; format: biochemical; settings: for Ki: Dixon plots, read-out: Ki (inhibition constant); for Type of Inhibition: Lineweaver-Burk and Dixon plots, reversibility from activity vs enzyme concentration plots; for IC50: concentration that caused 50% enzyme activity loss, three sets of experiments
T1 construct: purchased Sigma-Aldrich
T1 sequence (P08246 30-267): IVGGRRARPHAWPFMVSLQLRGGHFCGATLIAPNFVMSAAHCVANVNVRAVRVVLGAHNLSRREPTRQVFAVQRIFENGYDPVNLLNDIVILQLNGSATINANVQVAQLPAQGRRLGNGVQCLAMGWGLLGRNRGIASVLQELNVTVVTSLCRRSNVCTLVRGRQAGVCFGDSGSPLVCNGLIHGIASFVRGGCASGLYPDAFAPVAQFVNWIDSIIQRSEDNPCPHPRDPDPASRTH
Method: Human neutrophil elastase (EC 3. 4. 21. 37) (Sigma-Aldrich, St. Louis, MO, USA) activity was measured in accordance with the previous description with subtle modification, by observing the formation of p-nitroaniline after the hydrolysis of N-methoxysuccinyl-Ala-Ala-Pro-Val-p-nitro anilide at 405 nm. The inhibitors were dissolved in dimethyl sulfoxide (DMSO) and diluted to a few concentrations. In brief, in a 96-well plate, 10 µL of inhibitor solution and 40 µL of 1.5 mM of MeOSuc-AAPV-pNA were added as a substrate in the 0.02 mM Tris-HCl buffer solutions (pH 8.0). Then, 20 µL of human neutrophil elastase (0.2 unit/mL) was added to the mixture. The test mixtures were incubated and mixed for 15 min at room temperature and then screened at 405 nm for 30 min every 30 s.
Activity (%) = 100 [1/(1 + ([I]/IC50))].(1)
The modalities of HNE inhibition were estimated in experiments using particular concentrations of the substrates and inhibitors, respectively. The Michaelis–Menten constant (Km) and maximal velocity (Vmax) were investigated by a Lineweaver–Burk plot. The KI, dissociation constants for inhibitor binding to the free enzyme were calculated using a Dixon plot. Equations (2)–(4) are representatives for deriving the aforementioned parameters. (2) 1/V=Km/Vmax(1+[I]/Ki)×1/S+1/Vmax (3) Slop=Km/KiVmax[I]+Km/Vmax (4) Intercept=1/KiVmax[I]+1/Vmax.

[2] = tested on: IL-1β in LPS-stimulated RAW264.7 cells; test: IL-1β concentration by ELISA; format: cell-based, mouse; settings: 1 or 3 µg/mL 2 h prior to LPS 1 µg/mL for 16 h; n = 6, p < 0.05
Method: RAW264.7 cell (2 × 10^5 cells/well) were cultured in a 6-well plate for 24 h and treated with compounds (1 or 3 µg/mL) 2 h prior to LPS treatment, followed by LPS (1 µg/mL) for 16 h. The concentration of pro-inflammatory cytokines in the collected supernatant was quantified using an ELISA kit (R&D system, Minneapolis, MN, USA) according to the manufacturer’s instructions. Briefly, 50 μL of assay diluent, sample, and standards were added to the ELISA well plate, which were pre-coated with anti-mouse IL-1β and TNF-α antibody. The plates were then covered with adhesive strip, agitated, and incubated for 2 h at room temperature. The ELISA well-plate was washed five times with a wash buffer, then 100 μL of mouse IL-1β and TNF-α conjugates was added and incubated at room temperature for 2 h. The plate was washed five times, 100 μL of substrate solution was added to each well, and incubated for 30 min in the dark. The reaction was quenched by the addition of 100 μL stop solution to each well, and the absorbance was read 450 nm/570 nm with an ELISA reader (Molecular Devices, Sunnyvale, CA, USA).

[3] = tested on: LPS-stimulated RAW264.7 cells; test: LPS-induced morphological changes (macrophage activation); format: cell-based, mouse; settings: pre-treatment 1 or 3 µg/mL
Method: The mouse macrophage cell line RAW264.7 was obtained from the American Type Culture Collection (ATCC, Manassas, VA, USA). The cells were cultured in DMEM supplemented with 10% fetal bovine serum (FBS), penicillin (100 U/mL), and streptomycin (100 μg/mL) at 37 °C with 5% CO2. The medium was replaced every 2 days. After treatment with chemicals, the cell morphological changes were observed under a microscope and images are captured before cell viability assay.

[4] = molecular target: T2, Human neutrophil elastase (HNE) (Homo sapiens, UniProt P08246); test: Fluorescence quenching binding affinity to HNE; settings: inhibitor 7.8–31.2 µM; for Kd: read-out: KA (association constant of the complex of enzyme and quencher) (converted); for KSV (Stern-Volmer quenching constant): λEx 260 nm, λEm 280–400 nm
T2 construct: purchased Sigma-Aldrich
T2 sequence (P08246 30-267): T1 sequence (P08246 30-267)
Method: To measure fluorescence from the HNE enzyme, 10 μL of 0.01 unit/mL enzyme solution with 180 μL of Tris-HCl buffer (0.02 mM) was accurately added into the 96-well black immunoplates. Then, 10 μL of incremental concentrations (7.8–31.2 μΜ) of inhibitors were added into each well. All fluorescence spectra were measured from 280 to 400 nm with emission slits regulated to 2.0 nm, and the excitation wavelength was 260 nm. The Stern–Volmer quenching constant (KSV) was calculated using Equation (5). All experiments were conducted in triplicate, and the mean values were calculated. (5) […]=1+KSV[Q], where F0 and F are the fluorescence intensities in the absence and presence of quencher (Q). KSV is the Stern–Volmer quenching constant [LM^−1]. For static quenching, the correlation between the fluorescence intensity and the concentration of quencher for the series of reactions can be estimated by Equation (6). (6) log[(F0−F)/F]=logKA+nlog[Q]f.
F0 and F are the fluorescence intensities in the absence and presence of inhibitor; KA is the binding constant; n is the number of binding sites of the enzyme; Qf is the concentration of inhibitor.

[5] = tested on: NO production in LPS-stimulated RAW264.7 cells; test: Nitrite levels (NO production), Griess method; format: cell-based, mouse; settings: 1 or 3 µg/mL 2 h prior to LPS 1 µg/mL for 16 h; p < 0.05
Method: Nitrite levels were determined using the Griess method, as described previously (Jeong et al., 2016). Briefly, RAW264.7 cells (5 × 10^4 cells/well) were cultured in a 24-well plate. The cells were pretreated with triterpenoids (1 or 3 µg/mL) 2 h prior to lipopolysaccharides (LPS, 1 µg/mL) treatment for 16 h. Supernatants were collected and centrifuged at 2451× g for 10 min. The (50 μL) of supernatants were mixed with equal volumes of Griess reagent (1% sulfanilamide, 0.1% n-l-naphthylethy-lenediamine dihydrochloride, and 2% phosphoric acid), and incubated for 10 min. The optical density was measured at 550 nm, and the nitrite levels were calculated from a standard curve generated from sodium nitrite.

Row | Structure (SMILES) | Ki [1] | Type of Inhibition [1] | IC50 [1] | LPS-upregulated IL-1β concentration [2] | effect on LPS-induced morphological changes [3] | n (number of binding sites of the enzyme) [4] | Kd [4] | KSV (Stern-Volmer quenching constant) [4] | LPS-induced NO production [5]
1 | CC(C)=CCC/C(C)=C/C[C@@H](O)/C(C)=C/CC[C@@]1(C)[C@H](CCCO)/C(=C(/C)C=O)CC[C@]1(C)O [Compound 1, isoiridogermanal] | 12.7 µM | noncompetitive inhibition | 14.4 ± 0.3 µM | noticeably decreased | ameliorated | 1.0039 | 24.3 µM | 41660 L/mol | significantly reduced
2 | CC(C)=CCCC(C)=CCC(O)C(C)=CCCC1(C)C(CCCO)C(=C(C)C=O)CCC1(C)O (stereo not drawn) [Compound 2, iridobelamal A] | 24.9 µM | noncompetitive inhibition | 27 ± 0.6 µM | noticeably decreased | ameliorated | 0.9734 | 50.3 µM | 18160 L/mol | significantly reduced; also recorded: dose-dependent inhibition
